Experimental data from patent US12678433B2, “Compounds for treatment of hemolysis-and inflammasome-associated diseases” (New York Blood Center, Inc., priority 2020, dated 2026).

Columns and labels:
Bach2 = Bach2 levels in human B cells; format: cell-based; conditions: in the presence of heme
[1] = test system: naïve B cells from Allo(−) and Allo(+) SCD patients; assay: 7-day stimulated naïve B cell culture from SCD patients; format: cell-based, human; conditions: for inhibition of plasmablast B cell differentiation: heme 5 μM
Description: Human samples. All studies were approved by the institutional Review Boards of the New York Blood Center (NYBC) and Montefiore Health Center. […] The blood samples from SCD patients were processed within 18 hours after collection. For circulating DOCK8 expression studies in healthy controls, peripheral blood samples from de-identified, race-matched healthy donors were used. Leukocyte enriched products from de-identified healthy donors were used for purification of B cells for in vitro culture studies.
Cell isolation and culture. Peripheral blood mononuclear cells (PBMCs) were prepared by Ficoll (GE Healthcare) density gradient centrifugation from healthy donor leukopak products as well as from sickle peripheral blood apheresis waste bags. Human naïve and memory B cells were isolated from PBMCs using a human memory B Cell Isolation Kit (Miltenyi Biotec) by collecting CD27− B cells (naïve B cells) and CD27+ B cell (memory B cells) separately. […] In addition, heme and various inhibitors were added to the cultures at the start point and incubated for 7 days.
Cultured cells: stimulated B cells were transferred into U bottom 96 well plate and washed with 200 μl MACS buffer (D-PBS containing 0.5% BSA and 2 mM EDTA) at 300×g for 5 min at 4° C. After one wash, cells were stained for surface expression of CD19, CD38, CD27 using 25 μl staining buffer (anti-CD19, CD38, CD27 antibodies, diluted 200 fold with MACS buffer) for 30 min at 4° C. After one wash with 200 μl MACS buffer, cells were resuspended in 100 μl D-PBS and 50 μl Fixable Viability Dye eFluor™ 780 (1000 fold diluted with D-PBS, Thermo Fisher Scientific) was added for dead cell detection for 5 min at room temperature. Cells were washed one time with MACS buffer and 100 μl D-DPS was added just before flow cytometric analysis (LSRFortessa flow cytometer, BD Bioscience). For intracellular staining of IgG, Blimp-1 and HO-1, samples were first washed with 200 μl MACS buffer before addition of 150 μl Fixation/Permeabilization buffer (Thermo Fisher Scientific) for 45 min at 4° C. After fixation, samples were washed twice with 1× Permeabilization buffer (Thermo Fisher Scientific) and stained with 25 μl intracellular staining buffer (anti-human IgG, DOCK8, Blimp-1, HO-1 antibodies, diluted 200 fold with 1× Permeabilization buffer) for 45 min at 4° C., after which the cells were washed twice with Permeabilization buffer and 100p D-DPS was added prior to flow cytometric analysis.

[2] = test system: splenic B cells from C57BL/6J mice; assay: Mouse B cell differentiation in vitro; format: cell-based; conditions: 7 days, hemin 2.5 or 5 μM, different doses of quinine
[3] = test system: DOCK8/STAT3 signaling pathway; assay: Protein phosphorylation analysis by intracellular flow cytometry in stimulated B cells; format: cell-based, human; conditions: heme 10 μM
Description: Protein phosphorylation analysis: B cells were short-term (maximum overnight) stimulated using the same B cell activation cocktail as above in the absence or presence of hemin (10 μM) after which B cells were fixed with the same volume pre-warmed Phosflow Fix buffer I (BD Bioscience) for 10 min at 37° C. After that, cells were washed twice with MACS buffer (400×g, 4° C., 5 min) followed by addition of 0.4 ml Perm buffer Ill (pre-chilled in −20° C., BD Bioscience) for 30 min on ice. After two washes with MACS buffer, samples were stained with staining buffer (anti-Pyk2(pY402), SYK(pY319), SRC(pY418), and STAT3(pY705), 100 fold diluted with MACS buffer) at 4° C. for 45 min, washed and analyzed by flow cytometry.
It has been shown that plasma free-heme can directly bind to DOCK8 protein and inhibit monocyte/macrophage phagocytosis through the DOCK8-Cdc42 signaling pathway. DOCK8/STAT3 signaling pathway activation, leading to phosphorylation of Pky2, SYK, SRC, and STAT3, has also been reported to be critical for B cell activation, although the effect of heme on this activation pathway was not examined. To test whether DOCK8/STAT3 signaling is inhibited by cell-free heme during B cell activation, we analyzed the phosphorylation of Pyk2, SYK, SRC, and STAT3 following short-term stimulation in the presence or absence of heme (10 μM) by intracellular flow cytometric analysis. […]

Question: What does the source list for `C=CC1=C(C)c2cc3[n-]c(cc4[n-]c(cc5nc(cc1n2)C(C)=C5C=C)c(C)c4CCC(=O)O)c(CCC(=O)O)c3C.[Fe+2]` [heme, iron(III) complex of protoporphyrin IX]?
Answer: Bach2 levels (Bach2): no significant change; effect on B cell proliferation, Allo(−) versus Allo(+) patients ([1]; 2.5 or 5 μM hemin): did not differ; DOCK8hi B cells and CD27hiBlimp-1+ plasma cell differentiation ([1]; Allo(+) SCD patients): not; inhibition of plasmablast B cell differentiation ([1]; Allo(+) SCD patients): 16%±9.7%; DOCK8hi B cells and CD27hiBlimp-1+ plasma cell differentiation ([1]; Allo(−) SCD patients): inhibited; inhibition of plasmablast B cell differentiation ([1]; Allo(−) SCD patients): 58.6%±7.3%; mouse plasma cell differentiation [2]: did not inhibit; p-STAT3 ([3]; overnight samples): inhibitory effect; levels of phosphorylated (p)-Pyk2/SYK/SRC/STAT3 ([3]; short-term stimulation (15 min)): significant reduction
